# Measured values reported in patent US20210386367A1, “DEVICES AND SYSTEMS FOR GASTROINTESTINAL MICROBIOME DETECTION AND MANIPULATION” (Progenity, Inc., priority 2018, published 2021).
# Read-outs that look alike come from different tables or passages of the source.
# Key:
# [1] = tested on: Enterococcus faecalis clinical isolates; experiment: MIC distribution against clinical isolates; format: cell-based; settings: 50 E. faecalis isolates
# [2] = tested on: Streptococcus pyogenes clinical isolates; experiment: MIC distribution against clinical isolates; format: cell-based; settings: 19 S. pyogenes isolates
# Source text: (§1) As used herein, “minimum inhibitory concentration” or “MIC” refers to the lowest concentration of an antimicrobial agent, for example, an antimicrobial agent as described herein, required to inhibit the growth of an organism. […] “MIC90” represents the MIC value at which ≥90% of the strains within a test population are inhibited; the 90th percentile.
# (§2) Many susceptibility testing methods are known in the art and can be used as described herein (see, e.g., Jorgensen and Ferraro (2009) Clinical Infectious Diseases 49:1749-1755; and Maurer et al. (2017) Infectious Disease Reports 9:6839; the entire contents of each of the foregoing are incorporated herein by reference). For example, antimicrobial susceptibility can be determined using conventional culture based methods such as the broth or agar dilution test. In these dilution tests, the bacterial isolate of interest is inoculated onto different media that include serial dilutions of an antimicrobial agent, and incubated under appropriate conditions (e.g., overnight at 37° C.) to allow for growth to occur. Following the incubation period, the media is examined to determine bacterial growth. The lowest concentration of antibiotic that prevents growth represents the minimal inhibitory concentration (MIC). Broth dilution tests can be miniaturized and mechanized allowing for reproducibility and high throughput.
# [3] = tested on: Viridans group Streptococci clinical isolates; experiment: MIC distribution against clinical isolates; format: cell-based; settings: 15 Viridans group Streptococci isolates
# Source text: as §1, §2
# Streptococcus pyogenes = experiment: Broth microdilution MIC, 19 clinical isolates; format: cell-based
# Experimental: (§3) Minimal inhibitory concentration (MIC) values were determined by broth microdilution or agar dilution in accordance with guidelines from the Clinical and Laboratory Standards Institute (CLSI; (1) “Methods for Dilution Antimicrobial Susceptibility Tests for Bacteria That Grow Aerobically; Approved Standard; 11th ed.” CLSI standard M07-A11, 2018; (2) “Performance Standards for Antimicrobial Susceptibility Testing; Twenty-Eighth Informational Supplement,” CLSI document M100-S28, 2018; and (3) “Methods for Antimicrobial Susceptibility Testing of Anaerobic Bacteria; Approved Standard—Eighth Edition,” CLSI document M11-A8, 2012).
# (§4) Tested aerobically by broth microdilution: • Escherichia coli, n=50 • Klebsiella spp., n=50 • Pseudomonas aeruginosa, n=50 • Streptococcus spp., n=50 • Staphylococcus aureus, n=50 • Enterococcus faecalis, n=50 • Enterobacter aerogenes, n=50 • Proteus mirabilis, n=50
# (§5) Broth microdilution testing of aerobic bacteria was conducted in cation-adjusted Mueller Hinton broth (MHBII). For testing streptococci, lysed horse blood (LHB) was added to MHBII broth at a final concentration of 3%. Where LHB was used, it was added after filtering.
# (§6) Broth microdilution susceptibility testing in 96-well microplates was conducted in accordance with CLSI methods (1) and (2). Automated liquid handlers were used to conduct serial dilutions and liquid transfers, including the Multidrop 384 (Labsystems, Helsinki, Finland), Biomek 2000, and the Biomek FX (Beckman Coulter, Fullerton, Calif.). All wells in columns 2 through 12 of a standard 96-well microdilution plate (Costar 3795) were filled with 150 μL of the appropriate diluent. Then, 300 μL of the test agents were added to the wells of column 1 of the plates at 100× the highest final concentration to be tested. Serial two-fold dilutions were made across the rows through column 11 using the Biomek 2000. The wells of column 12 contained no drug and served as the growth control wells. This plate served as the “mother plate” from which MIC assay plates or “daughter plates” were made.
# (§7) The daughter plates were loaded with 190 μL per well of the appropriate medium using the Multidrop 384. The daughter plates were created using the Biomek FX which transferred 2 μL of drug solution from each well of a mother plate to each corresponding well of the daughter plate in a single step. A standardized inoculum of each test organism was prepared per CLSI methods (1) to equal a 0.5 McFarland standard, followed by a dilution of 1:20 for aerobes and 1:10 for anaerobes. The plates were then inoculated with 10 μL of the diluted inoculum using the Biomek 2000 from low to high drug concentration, resulting in a final concentration of approximately 5×10^5 CFU/mL per well. An un-inoculated plate was incubated in parallel for each medium for the purpose of assessing solubility of the drug in the test media.
# (§8) Inoculated plates were stacked 3 or 4 high, covered with a sterile lid on the top plate, placed into boxes with CO2 planchets (streptococci) or plastic bags (all other isolates). Plates were incubated at 35° C. for 16-24 hr in ambient air for aerobes or for 42-48 hr in the anaerobic environment of the Bactron II anaerobe chamber (Sheldon Manufacturing Co.; Cornelius, Oreg.). Following incubation, the microplates were removed from the incubator and viewed from the bottom using a plate viewer. The MIC values were read and recorded as the lowest concentration of drug that inhibited visible growth of the organism as per CLSI methods (1) and (2).
# Streptococcus agalactiae = experiment: Broth microdilution MIC, 20 clinical isolates; format: cell-based; settings: for Mode: modal MIC
# Experimental: as §3, §4, §5, §6, §7, §8
# E. coli MMX 1312 = experiment: Broth microdilution MIC (time-kill study); format: cell-based, Escherichia coli
# [4] = 20 Streptococcus agalactiae clinical isolates
compound,measurement,setting,value
C[C@@H](O)[C@H]1C(=O)N2C(C(=O)O)=C(S[C@@H]3CN[C@H](C(=O)N(C)C)C3)[C@H](C)[C@H]12 [meropenem],Cumulative percentage of isolates inhibited at MIC,[1]; MIC 0.5 μg/mL,2.0%
same,Number of test isolates at MIC,[1]; MIC 0.5 μg/mL,1
same,Cumulative percentage of isolates inhibited at MIC,[1]; MIC 1 μg/mL,8.0%
same,Number of test isolates at MIC,[1]; MIC 1 μg/mL,3
same,Cumulative percentage of isolates inhibited at MIC,[1]; MIC 2 μg/mL,24.0%
same,Number of test isolates at MIC,[1]; MIC 2 μg/mL,8
same,Cumulative percentage of isolates inhibited at MIC,[1]; MIC 4 μg/mL,72.0%
same,Number of test isolates at MIC,[1]; MIC 4 μg/mL,24
same,Cumulative percentage of isolates inhibited at MIC,[1]; MIC 8 μg/mL,96.0%
same,Number of test isolates at MIC,[1]; MIC 8 μg/mL,12
same,Cumulative percentage of isolates inhibited at MIC,[1]; MIC 16 μg/mL,98.0%
same,Number of test isolates at MIC,[1]; MIC 16 μg/mL,1
same,Cumulative percentage of isolates inhibited at MIC,[1]; MIC >16 μg/mL,100.0%
same,Number of test isolates at MIC,[1]; MIC >16 μg/mL,1
same,Cumulative percentage of isolates inhibited at MIC,[2]; MIC 0.004 μg/mL,78.9%
same,Number of test isolates at MIC,[2]; MIC 0.004 μg/mL,14
same,Cumulative percentage of isolates inhibited at MIC,[2]; MIC 0.008 μg/mL,94.7%
same,Number of test isolates at MIC,[2]; MIC 0.008 μg/mL,3
same,Cumulative percentage of isolates inhibited at MIC,[2]; MIC 0.03 μg/mL,100.0%
same,Number of test isolates at MIC,[2]; MIC 0.03 μg/mL,1
same,Cumulative percentage of isolates inhibited at MIC,[2]; MIC ≤0.002 μg/mL,5.3%
same,Number of test isolates at MIC,[2]; MIC ≤0.002 μg/mL,1
same,Cumulative percentage of isolates inhibited at MIC,[3]; MIC 0.004 μg/mL,6.7%
same,Number of test isolates at MIC,[3]; MIC 0.004 μg/mL,1
same,Cumulative percentage of isolates inhibited at MIC,[3]; MIC 0.008 μg/mL,26.7%
same,Number of test isolates at MIC,[3]; MIC 0.008 μg/mL,3
same,Cumulative percentage of isolates inhibited at MIC,[3]; MIC 0.015 μg/mL,60.0%
same,Number of test isolates at MIC,[3]; MIC 0.015 μg/mL,5
same,Cumulative percentage of isolates inhibited at MIC,[3]; MIC 0.03 μg/mL,80.0%
same,Number of test isolates at MIC,[3]; MIC 0.03 μg/mL,3
same,Cumulative percentage of isolates inhibited at MIC,[3]; MIC 0.5 μg/mL,100.0%
same,Number of test isolates at MIC,[3]; MIC 0.5 μg/mL,2
same,Cumulative percentage of isolates inhibited at MIC,[3]; MIC […],86.7%
same,Number of test isolates at MIC,[3]; MIC […],1
same,% S,Streptococcus pyogenes,100%
same,MIC range,Streptococcus pyogenes,≤0.002-0.03^ μg/mL
same,Mode,Streptococcus pyogenes,0.004 µg/mL
same,MIC50,"Streptococcus pyogenes; Streptococcus pyogenes, read-out: MIC50",0.004 µg/mL
same,MIC90,"Streptococcus pyogenes; Streptococcus pyogenes, read-out: MIC90",0.008 µg/mL
same,MIC50,Streptococcus agalactiae; [4],0.03 µg/mL
same,MIC90,Streptococcus agalactiae; [4],0.03 µg/mL
same,MIC range,Streptococcus agalactiae; [4],0.015 to 0.06 µg/mL
same,% S,"Streptococcus agalactiae; 20 Streptococcus agalactiae clinical isolates, MXF by FDA breakpoints",100%
same,MIC50,"Streptococcus agalactiae; Streptococcus agalactiae, read-out: MIC50",0.03 µg/mL
same,MIC90,"Streptococcus agalactiae; Streptococcus agalactiae, read-out: MIC90",0.03 µg/mL
same,Mode,Streptococcus agalactiae; [4],0.03 µg/mL
same,MIC,E. coli MMX 1312; E. coli MMX 1312,0.008 µg/mL
same,MIC,"E. coli MMX 1312; Escherichia coli, MMX1312, broth microdilution, read-out: MIC",0.008 µg/mL
CO[C@H]1/C=C/O[C@@]2(C)Oc3c(C)c(O)c4c(O)c(c5c(nc6cc(C)ccn65)c4c3C2=O)NC(=O)/C(C)=C\C=C\[C@H](C)[C@H](O)[C@@H](C)[C@@H](O)[C@@H](C)[C@H](OC(C)=O)[C@@H]1C [rifaximin],Number of test isolates at MIC,[1]; MIC 0.5 μg/mL,5
same,Number of test isolates at MIC,[2]; MIC 0.06 μg/mL,6
same,Number of test isolates at MIC,[3]; MIC 0.06 μg/mL,6
same,MIC50,Streptococcus pyogenes,0.06 µg/mL
same,MIC90,Streptococcus pyogenes,0.25 µg/mL
same,MIC range,Streptococcus pyogenes,0.015 to 0.25 µg/mL
same,Mode,Streptococcus pyogenes,0.06 µg/mL
same,MIC50,Streptococcus agalactiae,0.12 µg/mL
same,MIC90,Streptococcus agalactiae,0.12 µg/mL
same,MIC50,Streptococcus agalactiae; [4],0.12 µg/mL
same,MIC90,Streptococcus agalactiae; [4],0.12 µg/mL
same,MIC range,Streptococcus agalactiae; [4],0.12 to 0.25 µg/mL
same,Mode,Streptococcus agalactiae; [4],0.12 µg/mL
same,MIC,E. coli MMX 1312; E. coli MMX 1312,8 µg/mL
same,MIC,E. coli MMX 1312; broth microdilution,8 µg/mL
